Results on three compounds are retold here after patent US9492423B2, “Formulations of histone deacetylase inhibitor in combination with bendamustine and uses thereof” (PHARMACYCLICS LLC, priority 2011, dated 2016).

Bounds are passed on as bounds.

Data set [1] in a line: Clinical PK of Compound 1 in solution form, single oral dose and 2-hour IV infusion doses. Particulars: human, in vivo, humans. As to the method:
In clinical trials involving humans with cancer, Compound 1 in solution form was administered at 2 mg/kg as a single oral dose and as multiple 2-hour IV infusion doses.

The subject of a further data set is H929 (Multiple Myeloma). In words: Tumor growth inhibition study, H929 bearing female SCID mice. Type of data set: in vivo. Conditions: PCI-24781 12 mg/kg BID IP 5 d/wk; bendamustine 5.0 mg/kg qd IP 2 d/wk; FIG. 7. As to the method:
Mice inoculated subcutaneously in the right hind flank with H929 MM cells at a density of 1×10^7 cells in a volume of 100 μL/mouse 4 groups of animals (n=8/group) received vehicle (BID, IP, 5 d/wk), PCI-24781 alone (12 mg/kg BID, IP, 5 d/wk), bendamustine alone 5.0 mg/kg (qd, IP, 2 d/wk Tu, Th) or the combination. Body weights and tumor measurements were collected a minimum of 2 times each week for all animals. Blood and tumor samples were collected at study termination for pharmacodynamic evaluations.

For data set [2], the system named is RAD51. In words: Western blot of DNA repair proteins in multiple myeloma cell lines. Type of data set: cell-based. Conditions: FIG. 6A. From the text: RAD51 represents an essential component of homologous recombination (HR), one of the two major DNA double-strand break (DSB) repair pathways in cells; the second pathway, non-homologous end joining (NHEJ), represented here by two of its components Ku-70 and DNA-PKcs, is not affected by these treatments. […] As explained supra, the synergistic anti-multiple myeloma activity of the bendamustine-Compound 1 combination could be due to a reduction in RAD51 levels caused by the HDAC inhibitor (i.e., Compound 1).

Data set [3] concerns Neuroblastoma cell lines and patient-derived primary neuroblastoma cultures. In words: Neuroblastoma cell viability, calcein AM assay. Type of data set: cell-based. Particulars: 48 hours, viability by calcein AM. As to the method:
Neuroblastoma cell lines and patient-derived primary neuroblastoma cultures were treated with bortezomib, Compound 1 alone or a combination of both agents for 48 hours. Cells were also treated with HDAC inhibitors vorinostat, sodium butyrate, and valproic acid and viability was assessed by calcein AM assays. mRNA from treated cells was evaluated at 6 and 24 hours using U133+ mRNA expression arrays and Ingenuity analysis. Dichlorofluorescein (DCF) was used to measure reactive oxygen species (ROS). Cell viability assays were repeated in the presence of N-acetylcysteine (NAC). Western blot evaluated caspase-3 and PARP cleavage. Nude mice were injected with 10^7 SMS-KCNR cells subcutaneously and treated with daily doses of 0.5 mg/kg bortezomib, 12.5 mg/kg Compound 1, or a combination of the two agents. Tumors were measured and imaged twice per week.

Data set [4] has as its system Jurkat (leukemia) and HCT-116 (colon tumor). Briefly: In vitro dose scheduling studies, apoptosis by FACS (annexinV-FITC/PI). Type of data set: cell-based, human. As to the method: Pharmacokinetic data (pk) data from human patients was used to model various dose regimens using human cell lines: Jurkat (leukemia) and HCT-116 (colon tumor). The human cell lines were treated with or without a HDAC inhibitor (e.g. Compound 1). Cells were cultured, treated according to different regimens and concentrations to model the corresponding dosing regimen (continuous low dose: 0.2 μM; intravenous (IV): 2 μM 3 hours+0.3 μM 4 hours; oral BID: 0.4 μM 4 hours×2, 4 hours apart; oral consecutive BID: 0.4 μM 8 hours; oral consecutive TID: 0.266 μM 12 hours), then washed out to mimic the human in vivo PK.
Cell viability was examined by an analysis of apoptosis using fluorescence activated cell sorting (FACS) after staining with annexinV-FITC and propidium iodide (PI). In brief, after treatment, 1×10^6 cells were washed with phosphate buffered saline (PBS) and then labeled with annexinV-FITC/PI in the binding buffer according to manufacturer's protocol. Fluorescent signals of FITC and PI were detected at 518 nm and 620 nm, respectively, on a Beckman Coulter FACS instrument (Fullerton, Calif.). The data were analyzed with Flow Jo software (Tree Star, Ashland, Oreg.).

A short description of data set [5]: Phase 1 trial of oral capsule Compound 1, HCl: plasma pharmacokinetics. Type of data set: in vivo. Particulars: human, 30 mg/m^2 dose of capsule formulation of Example 2, solid tumor cancer patients, mean±SE, read-out: AUC0-4h for plasma concentrations. As to the method: (§1) This is a Phase 1 dose-escalation study of the safety, pharmacokinetics, and pharmacodynamics of Compound 1, HCl administered orally in patients with advanced cancer.
(§2) In the Phase 1 dose escalation study, up to 7 cohorts will receive Compound 1, HCl orally at doses starting at 30 mg/m^2, approximately 4-6 hours apart, up to 90 mg/m^2, 2 or 3 times a day according to 3 different dosing schedules within 28 day cycle (5 days of dosing followed by 2 days of no dosing; 5 days of dosing followed by 9 days of no dosing; 7 days of dosing followed by 7 days of no dosing) until the maximum tolerated dose is reached.
The following pharmacokinetic information was determined for patients that received a […] dose of the capsule formulation of Example 2. Solid tumor cancer patients received a […] dose of the capsule formulation of Example 2. Blood samples that were collected for up to 24 hours post-dosing were analyzed for pharmacokinetic evaluations. Plasma was harvested by centrifugation and stored at approximately −70° C. until analysis. Concentrations of Compound 1 were determined in plasma using HPLC gradient system (Hewlett Packard model 1100) was configured with Sciex API 3000 and a reversed phase column (Phenomenex, Luna C18, 3.0 μm, 50×2 mm i.d.). The mobile phase gradient consisted of 0.2% formic acid in water (A) and 0.2% formic acid in methanol (B). […]

In data set [6] the test system is RAD51. Briefly: Jurkat cells, pretreatment and bendamustine-induced RAD51 upregulation. Type of data set: cell-based, human. Conditions: Jurkat cells pre-treated one day with 0.2 uM Compound 1, then 20 uM bendamustine for 1 day, FIG. 9. As to the method:
Cells were pre-treated one day is advance with 0.2 uM HDAC inhibitor (i.e., Compound 1), then 20 uM bendamustine was added for 1 day.

Data set [7] can be described thus: Phase 1 trial of oral capsule Compound 1, HCl: safety, tolerability, pharmacodynamics. Type of data set: in vivo.
Excerpt: as §1
This study seeks to determine the highest dose of Compound 1, HCl that can be taken without causing serious side effects in patients with advanced cancer. The study will look at safety of the study drug (Compound 1, HCl) and whether the treatment schedule is tolerated by patients.
as §2
Patients should satisfy the following criteria: At least 18 years of age; histologically confirmed, measurable solid tumor, non-Hodgkin's lymphoma, Hodgkin's disease, chronic lymphocytic leukemia, or multiple myeloma that has relapsed after standard therapy or for which no standard therapy exists; ability to swallow oral capsules without difficulty; estimated life expectancy>12 weeks; ECOG performance status≦2; Creatinine≦1.5×institutional upper limit of normal (ULN); Total bilirubin≦1.5×institutional ULN (unless elevated from documented Gilbert's syndrome); AST and ALT≦2.5×institutional ULN (≦5×institutional ULN in the presence of liver metastases); Platelet count≧100,000/μL; ANC≧1500/μL; Hgb≧9.0 g/dL; Patients with previously treated, stable, asymptomatic brain metastases who are not on corticosteroids are eligible; Willing and able to sign a written informed consent.

Regarding `CN(C)Cc1c(C(=O)NCCOc2ccc(C(=O)NO)cc2)oc2ccccc12` [Compound 1, N-hydroxy-4-{2-[3-(N,N-dimethylaminomethyl)benzofuran-2-ylcarbonylamino]ethoxy}-benzamide], the bioavailability in data set [1] (2 mg/kg, administered as immediate release capsules or an oral solution) was roughly 27%. Also, the bioavailability in data set [1] (2 mg/kg solution, from oral and IV AUC0-∞) was roughly 27%. Also, in the data set with H929 (Multiple Myeloma), the tumor growth inhibition stood at 73%. Further, in the data set with RAD51 [2], the “NHEJ components Ku-70 and DNA-PKcs” value is given as “not affected”; the RAD51 expression result is recorded as “downregulation of RAD51”. Moreover, the IC50 in data set [3] was less than 200 nM. In addition, the “efficacy of modelled oral tid dosing versus bid dosing” value in data set [4] (0.266 μM 12 hours versus 0.4 μM 8 hours) is given as “better”. In data set [4] (0.4 μM 8 hours versus 0.4 μM 4 hours×2), the “efficacy of modelled oral bid dosing given consecutively (4 hours apart) versus with a break in between” value was “more efficacious”. The “efficacy (tumor cell death) of modelled dose schedule” value in data set [4] (continuous exposure for at least 8 hours) is reported as “good efficacy”. Also, the AUC(0-t) in data set [5] was 0.272 ± 0.051 µM·h. In addition, in the data set on RAD51 [6], the “bendamustine-induced RAD51 upregulation” value is “suppressed bendamustine-induced RAD51 upregulation”. The “average grade of thrombocytopenia, TID versus BID consecutive dosing” value in data set [7] (daily exposure range of 0.63 to 2.15 μM·h) is “higher average grade of thrombocytopenia”. The therapeutic effect entry in data set [7] (immediate release capsule, 2 or 3 consecutive doses 4 to 6 hours apart on days of dosing) was “therapeutic effect of Compound 1 was achieved”. In addition, in data set [7] (solid tumor and lymphoma patients, cycles of 7 days oral dosing followed by 7 days without dosing), the “incidence of Grade 4 thrombocytopenia (platelet count <25,000 per mm^2)” value is “limited incidence of Grade 4 thrombocytopenia”.
As for `CC(C)C[C@H](NC(=O)[C@H](Cc1ccccc1)NC(=O)c1cnccn1)B(O)O` [bortezomib, reference compound], the IC50 in data set [3] was less than 50 nM.
Take `Cn1c(CCCC(=O)O)nc2cc(N(CCCl)CCCl)ccc21` [bendamustine]: the tumor growth inhibition with H929 (Multiple Myeloma) was 79%.
